The subject of series [1] is bacteria and fungi. The experiment in a line: antimicrobial efficacy of agents in melamine formaldehyde resin. To be noted: agent for melamine resin; stated in words, no test described.
For series [2] the following is noted: at 20° C.; cited from earlier work.

Structures are written as SMILES.

For `O=c1[nH]sc2ccccc12` [1,2-benzisothiazolin-3-one], in series [1], the “efficacy as antimicrobial agent” value was “efficacious”.
Same read-out and setting: the value for `Cn1sc(Cl)cc1=O` [chloro-2-methyl-3(2H)-isothiazolone] was “efficacious”; that for `CCCCCCCCn1sc(Cl)c(Cl)c1=O` [4,5-dichloro-2-N-octyl-3(2H)-isothiazolone] was “efficacious”.
Turning to `CCCCn1sc2ccccc2c1=O` [N-butyl-1,2-benzisothiazolin-3-one], in series [1], the “efficacy as antimicrobial agent” value was “efficacious”.
For the molecule `Oc1cc(Cl)ccc1Oc1ccc(Cl)cc1Cl` [Triclosan, 2,4,4′-trichloro-2′-hydroxydiphenyl ether], the “efficacy as antimicrobial agent” value in series [1] was “particularly efficacious”. Further, in series [2], the vapor pressure is on record as 4×10^−4 mm.
Turning to `Cn1sccc1=O` [methyl-3(2H)-isothiazolone], the “efficacy as antimicrobial agent” value in series [1] is on record as “efficacious”.

Values taken from US20050239358A1, “Antimicrobial melamine resin and products made therefrom” (MICROBAN PRODUCTS COMPANY, priority 2002, published 2005).
